≈ marks a conversion by molar mass, not a printed value.
What was measured:
LOX IMVI = assay: Growth inhibition of human LOX IMVI cells at 10 uM relative to control; format: functional; settings: read-out: GI
MDA-MB-468 = assay: Growth inhibition of human MDA-MB-468 cells at 10 uM relative to control; format: functional; settings: read-out: GI
T47D = assay: Growth inhibition of human T47D cells at 10 uM relative to control; format: functional; settings: read-out: GI
CCRF-CEM = assay: Growth inhibition of human CCRF-CEM cells at 10 uM relative to control; format: functional; settings: read-out: GI
HL-60(TB) = assay: Growth inhibition of human HL-60(TB) cells at 10 uM relative to control; format: functional; settings: read-out: GI
K562 = assay: Growth inhibition of human K562 cells at 10 uM relative to control; format: functional; settings: read-out: GI
MOLT-4 = assay: Growth inhibition of human MOLT-4 cells at 10 uM relative to control; format: functional; settings: read-out: GI
RPMI-8226 = assay: Growth inhibition of human RPMI-8226 cells at 10 uM relative to control; format: functional; settings: read-out: GI
SR = assay: Growth inhibition of human SR cells at 10 uM relative to control; format: functional; settings: read-out: GI
A549 = assay: Growth inhibition of human A549 cells at 10 uM relative to control; format: functional; settings: read-out: GI
HOP-62 = assay: Growth inhibition of human HOP-62 cells at 10 uM relative to control; format: functional; settings: read-out: GI
HOP-92 = assay: Growth inhibition of human HOP-92 cells at 10 uM relative to control; format: functional; settings: read-out: GI
NCI-H226 = assay: Growth inhibition of human NCI-H226 cells at 10 uM relative to control; format: functional; settings: read-out: GI
NCI-H23 = assay: Growth inhibition of human NCI-H23 cells at 10 uM relative to control; format: functional; settings: read-out: GI
NCI-H322M = assay: Growth inhibition of human NCI-H322M cells at 10 uM relative to control; format: functional; settings: read-out: GI
NCI-H460 = assay: Growth inhibition of human NCI-H460 cells at 10 uM relative to control; format: functional; settings: read-out: GI
NCI-H522 = assay: Growth inhibition of human NCI-H522 cells at 10 uM relative to control; format: functional; settings: read-out: GI
SW-620 = assay: Growth inhibition of human SW-620 cells at 10 uM relative to control; format: functional; settings: read-out: GI
COLO 205 = assay: Growth inhibition of human COLO 205 cells at 10 uM relative to control; format: functional; settings: read-out: GI
HCC 2998 = assay: Growth inhibition of human HCC 2998 cells at 10 uM relative to control; format: functional; settings: read-out: GI
HCT-116 = assay: Growth inhibition of human HCT-116 cells at 10 uM relative to control; format: functional; settings: read-out: GI
HCT-15 = assay: Growth inhibition of human HCT-15 cells at 10 uM relative to control; format: functional; settings: read-out: GI
HT-29 = assay: Growth inhibition of human HT-29 cells at 10 uM relative to control; format: functional; settings: read-out: GI
KM12 = assay: Growth inhibition of human KM12 cells at 10 uM relative to control; format: functional; settings: read-out: GI
SF-268 = assay: Growth inhibition of human SF-268 cells at 10 uM relative to control; format: functional; settings: read-out: GI
SF-295 = assay: Growth inhibition of human SF-295 cells at 10 uM relative to control; format: functional; settings: read-out: GI
SF-539 = assay: Growth inhibition of human SF-539 cells at 10 uM relative to control; format: functional; settings: read-out: GI
SNB-19 = assay: Growth inhibition of human SNB-19 cells at 10 uM relative to control; format: functional; settings: read-out: GI
SNB-75 = assay: Growth inhibition of human SNB-75 cells at 10 uM relative to control; format: functional; settings: read-out: GI
U-251 = assay: Growth inhibition of human U-251 cells at 10 uM relative to control; format: functional; settings: read-out: GI
Malme-3M = assay: Growth inhibition of human Malme-3M cells at 10 uM relative to control; format: functional; settings: read-out: GI
M14 = assay: Growth inhibition of human M14 cells at 10 uM relative to control; format: functional; settings: read-out: GI
MDA-MB-435 = assay: Growth inhibition of human MDA-MB-435 cells at 10 uM relative to control; format: functional; settings: read-out: GI
SK-MEL-2 = assay: Growth inhibition of human SK-MEL-2 cells at 10 uM relative to control; format: functional; settings: read-out: GI
SK-MEL-28 = assay: Growth inhibition of human SK-MEL-28 cells at 10 uM relative to control; format: functional; settings: read-out: GI
SK-MEL-5 = assay: Growth inhibition of human SK-MEL-5 cells at 10 uM relative to control; format: functional; settings: read-out: GI
UACC-257 = assay: Growth inhibition of human UACC-257 cells at 10 uM relative to control; format: functional; settings: read-out: GI
UACC-62 = assay: Growth inhibition of human UACC-62 cells at 10 uM relative to control; format: functional; settings: read-out: GI
IGROV-1 = assay: Growth inhibition of human IGROV-1 cells at 10 uM relative to control; format: functional; settings: read-out: GI
OVCAR-4 = assay: Growth inhibition of human OVCAR-4 cells at 10 uM relative to control; format: functional; settings: read-out: GI
OVCAR-5 = assay: Growth inhibition of human OVCAR-5 cells at 10 uM relative to control; format: functional; settings: read-out: GI
OVCAR-8 = assay: Growth inhibition of human OVCAR-8 cells at 10 uM relative to control; format: functional; settings: read-out: GI
NCI/ADR-RES = assay: Growth inhibition of human NCI/ADR-RES cells at 10 uM relative to control; format: functional; settings: read-out: GI
SK-OV-3 = assay: Growth inhibition of human SK-OV-3 cells at 10 uM relative to control; format: functional; settings: read-out: GI
786-0 = assay: Growth inhibition of human 786-0 cells at 10 uM relative to control; format: functional; settings: read-out: GI
A498 = assay: Growth inhibition of human A498 cells at 10 uM relative to control; format: functional; settings: read-out: GI
ACHN = assay: Growth inhibition of human ACHN cells at 10 uM relative to control; format: functional; settings: read-out: GI
CAKI-1 = assay: Growth inhibition of human CAKI-1 cells at 10 uM relative to control; format: functional; settings: read-out: GI
RXF 393 = assay: Growth inhibition of human RXF 393 cells at 10 uM relative to control; format: functional; settings: read-out: GI
SN12C = assay: Growth inhibition of human SN12C cells at 10 uM relative to control; format: functional; settings: read-out: GI
TK-10 = assay: Growth inhibition of human TK-10 cells at 10 uM relative to control; format: functional; settings: read-out: GI
UO-31 = assay: Growth inhibition of human UO-31 cells at 10 uM relative to control; format: functional; settings: read-out: GI
PC-3 = assay: Growth inhibition of human PC-3 cells at 10 uM relative to control; format: functional; settings: read-out: GI
DU-145 = assay: Growth inhibition of human DU-145 cells at 10 uM relative to control; format: functional; settings: read-out: GI
MCF7 = assay: Growth inhibition of human MCF7 cells at 10 uM relative to control; format: functional; settings: read-out: GI
MDA-MB-231 = assay: Growth inhibition of human MDA-MB-231 cells at 10 uM relative to control; format: functional; settings: read-out: GI
Hs-578T = assay: Growth inhibition of human Hs-578T cells at 10 uM relative to control; format: functional; settings: read-out: GI
BT-549 = assay: Growth inhibition of human BT-549 cells at 10 uM relative to control; format: functional; settings: read-out: GI
DNA = assay: Displacement of methyl green from DNA (unknown origin) assessed as DNA intercalation after 24 hrs by colorimetric assay; format: nucleic-acid assay

With `CCOC(=O)C1=CSC2=NC(/C=C/c3ccc(OC)c(OC)c3)=CC(c3ccc(OC)c(OC)c3)N12` (centres undefined) the inhibition of growth at 10 µM (LOX IMVI) was less than 10%, the inhibition of growth at 10 µM (MDA-MB-468) was less than 10% and the inhibition of growth at 10 µM (T47D) was less than 10%. The inhibition of growth at 10 µM (CCRF-CEM) was less than 10%, the inhibition of growth at 10 µM (HL-60(TB)) was less than 10% and the inhibition of growth at 10 µM (K562) was less than 10%. For the same compound, the inhibition of growth at 10 µM (MOLT-4) was less than 10%, the inhibition of growth at 10 µM (RPMI-8226) was less than 10% and the inhibition of growth at 10 µM (SR) was less than 10%. For the same compound, the inhibition of growth at 10 µM (A549) was less than 10%, the inhibition of growth at 10 µM (HOP-62) was less than 10% and the inhibition of growth at 10 µM (HOP-92) was 39.5%. For the same compound, the inhibition of growth at 10 µM (NCI-H226) was less than 10%, the inhibition of growth at 10 µM (NCI-H23) was less than 10% and the inhibition of growth at 10 µM (NCI-H322M) was less than 10%. The inhibition of growth at 10 µM (NCI-H460) was less than 10%, the inhibition of growth at 10 µM (NCI-H522) was 12% and the inhibition of growth at 10 µM (SW-620) was less than 10%. The inhibition of growth at 10 µM (COLO 205) was less than 10%, the inhibition of growth at 10 µM (HCC 2998) was less than 10% and the inhibition of growth at 10 µM (HCT-116) was less than 10%. The inhibition of growth at 10 µM (HCT-15) was less than 10%, the inhibition of growth at 10 µM (HT-29) was less than 10% and the inhibition of growth at 10 µM (KM12) was less than 10%. The inhibition of growth at 10 µM (SF-268) was less than 10%, the inhibition of growth at 10 µM (SF-295) was less than 10% and the inhibition of growth at 10 µM (SF-539) was less than 10%. It also gave an inhibition of growth at 10 µM (SNB-19) of less than 10%, an inhibition of growth at 10 µM (SNB-75) of 25.3% and an inhibition of growth at 10 µM (U-251) of less than 10%. It also gave an inhibition of growth at 10 µM (Malme-3M) of less than 10%, an inhibition of growth at 10 µM (M14) of less than 10% and an inhibition of growth at 10 µM (MDA-MB-435) of less than 10%. The inhibition of growth at 10 µM (SK-MEL-2) was less than 10%, the inhibition of growth at 10 µM (SK-MEL-28) was less than 10% and the inhibition of growth at 10 µM (SK-MEL-5) was less than 10%. For the same compound, the inhibition of growth at 10 µM (UACC-257) was less than 10%, the inhibition of growth at 10 µM (UACC-62) was less than 10% and the inhibition of growth at 10 µM (IGROV-1) was less than 10%. For the same compound, the inhibition of growth at 10 µM (OVCAR-4) was less than 10%, the inhibition of growth at 10 µM (OVCAR-5) was less than 10% and the inhibition of growth at 10 µM (OVCAR-8) was less than 10%. It also gave an inhibition of growth at 10 µM (NCI/ADR-RES) of less than 10%, an inhibition of growth at 10 µM (SK-OV-3) of less than 10% and an inhibition of growth at 10 µM (786-0) of less than 10%. For the same compound, the inhibition of growth at 10 µM (A498) was less than 10%, the inhibition of growth at 10 µM (ACHN) was 12.8% and the inhibition of growth at 10 µM (CAKI-1) was less than 10%. The inhibition of growth at 10 µM (RXF 393) was less than 10%, the inhibition of growth at 10 µM (SN12C) was less than 10% and the inhibition of growth at 10 µM (TK-10) was less than 10%. The inhibition of growth at 10 µM (UO-31) was 20.2%, the inhibition of growth at 10 µM (PC-3) was 11.3% and the inhibition of growth at 10 µM (DU-145) was less than 10%. It also gave an inhibition of growth at 10 µM (MCF7) of less than 10%, an inhibition of growth at 10 µM (MDA-MB-231) of less than 10% and an inhibition of growth at 10 µM (Hs-578T) of less than 10%. It also gave an inhibition of growth at 10 µM (BT-549) of less than 10% and an IC50 (DNA) of 29.86 µg/mL (≈ 58.7 µM).

Reference: ChEMBL document CHEMBL4665869, “New thiazolopyrimidine as anticancer agents: Synthesis, biological evaluation, DNA binding, molecular modeling and ADMET study” (Bioorg Med Chem Lett, 2020)
